Target: T1, angiotensin converting enzyme (Oryctolagus cuniculus, UniProt P12822)
T1 construct: A crude angiotensin converting enzyme supernatant is obtained by blending 1 gm. of rabbit lung acetone powder; tissue PelFreez Biologicals; host or cells: rabbit lung acetone powder, crude 40,000 xg supernatant
T1 sequence (P12822 34-1310): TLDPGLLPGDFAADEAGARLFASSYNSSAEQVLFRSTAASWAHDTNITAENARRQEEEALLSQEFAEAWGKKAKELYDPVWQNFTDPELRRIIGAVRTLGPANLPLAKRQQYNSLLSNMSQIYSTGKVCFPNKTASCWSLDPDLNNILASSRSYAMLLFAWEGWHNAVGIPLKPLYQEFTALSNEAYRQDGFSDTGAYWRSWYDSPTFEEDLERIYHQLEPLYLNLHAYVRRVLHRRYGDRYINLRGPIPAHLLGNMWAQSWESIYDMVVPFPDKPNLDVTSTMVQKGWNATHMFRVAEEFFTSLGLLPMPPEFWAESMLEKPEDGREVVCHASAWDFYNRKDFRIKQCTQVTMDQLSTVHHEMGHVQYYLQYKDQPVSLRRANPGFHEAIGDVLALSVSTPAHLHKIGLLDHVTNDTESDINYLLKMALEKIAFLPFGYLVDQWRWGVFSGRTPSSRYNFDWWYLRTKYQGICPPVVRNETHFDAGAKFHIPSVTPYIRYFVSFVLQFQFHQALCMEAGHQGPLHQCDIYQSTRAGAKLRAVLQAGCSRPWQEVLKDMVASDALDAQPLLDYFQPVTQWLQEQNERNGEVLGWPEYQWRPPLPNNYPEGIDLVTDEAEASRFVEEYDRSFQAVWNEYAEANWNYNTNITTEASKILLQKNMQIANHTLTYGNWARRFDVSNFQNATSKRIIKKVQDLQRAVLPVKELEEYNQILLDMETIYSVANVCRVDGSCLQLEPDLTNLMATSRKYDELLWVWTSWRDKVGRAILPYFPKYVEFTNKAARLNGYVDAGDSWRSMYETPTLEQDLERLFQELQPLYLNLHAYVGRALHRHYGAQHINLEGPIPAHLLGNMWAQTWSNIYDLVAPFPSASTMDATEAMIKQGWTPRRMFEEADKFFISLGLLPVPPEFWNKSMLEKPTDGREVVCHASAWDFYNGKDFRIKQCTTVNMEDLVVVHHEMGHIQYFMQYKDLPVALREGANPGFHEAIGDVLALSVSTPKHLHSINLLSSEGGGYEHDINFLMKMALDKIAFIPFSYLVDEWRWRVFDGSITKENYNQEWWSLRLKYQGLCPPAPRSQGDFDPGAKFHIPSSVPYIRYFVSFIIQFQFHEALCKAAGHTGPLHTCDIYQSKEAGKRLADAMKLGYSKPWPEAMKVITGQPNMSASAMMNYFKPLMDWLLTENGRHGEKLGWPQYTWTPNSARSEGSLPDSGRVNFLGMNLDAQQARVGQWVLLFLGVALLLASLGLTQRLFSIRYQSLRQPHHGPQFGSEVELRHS
Test: incubation of hippuryl-L-histidyl-L-leucine with angiotensin converting enzyme (HHL hydrolysis)
Format: biochemical, rabbit
Conditions: 100 ng/ml; read-out: inhibition of angiotensin converting enzyme in vitro
Procedure: The activity of the compounds of this invention was established by incubation of hippuryl-L-histidyl-L-leucine at 37° C. with angiotensin converting enzyme by the following procedure:
A crude angiotensin converting enzyme supernatant is obtained by blending 1 gm. of rabbit lung acetone powder (PelFreez Biologicals) with 35 ml of 50 mM (buffered) potassium phosphate, pH 8.3 and centrifuging for 45 min. at 40,000 xg.
The specific angiotensin converting enzyme substrate Hippuryl-L-histidyl-L-leucine (HHL-Sigma Chem. Co.) is prepared at 5 mM in 200 mM potassium phosphate buffer containing 757 mM NaCl at pH 8.3.
Incubation for the assay of HHL hydrolysis by angiotensin converting enzyme is carried out in a 37° C. gyrorotary incubator in disposable 13×100 mm tubes. Each 0.25 ml assay mixture contains the following components at the final concentrations: potassium phosphate buffer, 100 mM; NaCl, 300 mM; HHL, 5 mM; and enzyme 0.15 ml (10 mU approx.) added last to initiate the reaction. Zero time controls have 0.25 ml of 2N HCl added before the enzyme. The timed reactions are terminated with acid at 30 min. similarly and the hippuric acid freed from substrate is extracted into 1.5 ml of ethylacetate by vortex mixing for 15 sec. […]
The hippuric acid is resuspended in 1.0 ml of water, the absorbance at 228 nm is determined, and the amount present is calculated from a standard curve. […]

- inhibition at 0.1 µg/mL: 5%
SMILES: CC(CSC(=O)c1ccccc1)C(=O)N1C(C(=O)O)CCC1c1ccccc1 (stereo not drawn) [α-acid of Example 7, α-and β-5-Phenyl-1-(3-benzoylthio-2-methyl-1-oxopropyl)proline]

From US4320057A, “Aryl--pyrrolo--thiazepin--diones and aryl--piperidino--thiazepin--diones” (American Home Products Corporation, priority 1981, dated 1982)
